Laboratory results reported in patent US10906915B2, “Substituted pyrazoloazepin-4-ones and their use as phosphodiesterase inhibitors” (LEO Pharma A/S, priority 2016, dated 2021).

The molecules below were run against human PDE4D catalytic domain (UniProt no. Q08499) (Homo sapiens (Human), UniProt Q08499) (assay: PDE4 assay (TR-FRET, FAM-cAMP cleavage)). Conditions: human PDE4D catalytic domain; molar concentration giving 50% inhibition of substrate cleavage; read-out: PDE4 IC50 range.
Sequence of human PDE4D catalytic domain (Q08499 380-740 limits assumed): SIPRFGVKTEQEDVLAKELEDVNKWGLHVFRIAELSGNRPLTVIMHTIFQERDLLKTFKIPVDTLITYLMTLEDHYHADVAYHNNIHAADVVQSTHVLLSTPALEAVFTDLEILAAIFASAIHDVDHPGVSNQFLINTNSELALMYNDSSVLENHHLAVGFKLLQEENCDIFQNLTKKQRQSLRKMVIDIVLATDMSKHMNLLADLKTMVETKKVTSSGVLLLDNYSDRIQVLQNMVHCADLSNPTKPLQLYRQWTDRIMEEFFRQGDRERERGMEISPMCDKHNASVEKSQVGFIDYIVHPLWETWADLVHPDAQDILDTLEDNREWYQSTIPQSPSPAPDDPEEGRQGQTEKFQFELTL
Assay type: biochemical
Outline: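 PDE4D catalytic domain ([…]) was incubated with unlabelled cAMP plus FAM-cAMP and titrated compound, stopped with binding buffer of metal-ion nanoparticles and Tb donor. AMP generation read by TR-FRET; IC50 as 50% inhibition of cleavage versus controls, reported as nM ranges.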
`CCc1nn(CCCOC(=O)c2cc(C(F)(F)F)ccc2C)c2c1C(=O)NCC1(CCOCC1)C2` [Example 105, 3-(3-ethyl-4-oxo-spiro[6,8-dihydro-5H-pyrazolo[4,3-c]azepine-7,4′-tetrahydropyran]-1-yl)propyl 2-methyl-5-(trifluoromethyl)benzoate] was tested, and the IC50 was under 100 nM. Work on `CCc1nn(C[C@@H](C)COC(=O)c2ccc(Cl)cc2F)c2c1C(=O)NCC1(CCOCC1)C2` [Example 205, [(2R)-3-(3-ethyl-4-oxo-spiro[6,8-dihydro-5H-pyrazolo[4,3-c]azepine-7,4′-tetrahydropyran]-1-yl)-2-methyl-propyl] 4-chloro-2-fluoro-benzoate] yielded an IC50 of under 100 nM. `CCc1nn(C[C@@H](C)COC(=O)c2cc(F)ccc2Cl)c2c1C(=O)NCC1(CCOCC1)C2` [Example 200, [(2R)-3-(3-ethyl-4-oxo-spiro[6,8-dihydro-5H-pyrazolo[4,3-c]azepine-7,4′-tetrahydropyran]-1-yl)-2-methyl-propyl] 2-chloro-5-fluoro-benzoate] showed an IC50 of under 100 nM. With `CCc1nn(CCCOC(=O)c2ccc(C)cc2OC)c2c1C(=O)NCC1(CCOCC1)C2` [Example 60, 3-(3-ethyl-4-oxo-spiro[6,8-dihydro-5H-pyrazolo[4,3-c]azepine-7,4′-tetrahydropyran]-1-yl)propyl 2-methoxy-4-methyl-benzoate] the IC50 was under 100 nM. Molecule `CCc1nn(CCCOC(=O)C2CC(O)C2)c2c1C(=O)NCC1(CCOCC1)C2` (stereo not shown) [Example 10, 3-(3-ethyl-4-oxo-spiro[6,8-dihydro-5H-pyrazolo[4,3-c]azepine-7,4′-tetrahydropyran]-1-yl)propyl 3-hydroxycyclobutane-carboxylate] has an IC50 of 100 to 500 nM. In the case of `CCc1nn(CCCOC(=O)c2cccc(C(=O)N3CCCC3)c2)c2c1C(=O)NCC1(CCOCC1)C2` [Example 155, 3-(3-ethyl-4-oxo-spiro[6,8-dihydro-5H-pyrazolo[4,3-c]azepine-7,4′-tetrahydropyran]-1-yl)propyl 3-(pyrrolidine-1-carbonyl)benzoate], the IC50 is reported as under 100 nM. Molecule `CCc1nn(CCCOC(=O)c2ccc(F)cc2C(F)(F)F)c2c1C(=O)NCC1(CCOCC1)C2` [Example 109, 3-(3-ethyl-4-oxo-spiro[6,8-dihydro-5H-pyrazolo[4,3-c]azepine-7,4′-tetrahydropyran]-1-yl)propyl 4-fluoro-2-(trifluoromethyl)benzoate] has an IC50 of under 100 nM. In the case of `CCc1nn(C[C@@H](C)COC(=O)c2ccc(Cl)c(F)c2)c2c1C(=O)NCC1(CCOCC1)C2` [Example 199, [(2R)-3-(3-ethyl-4-oxo-spiro[6,8-dihydro-5H-pyrazolo[4,3-c]azepine-7,4′-tetrahydropyran]-1-yl)-2-methyl-propyl] 4-chloro-3-fluoro-benzoate], the IC50 is reported as under 100 nM. `CCc1nn(CCCOC(=O)c2cccc(C(=O)N3CCOCC3)c2)c2c1C(=O)NCC1(CCOCC1)C2` [Example 157, 3-(3-ethyl-4-oxo-spiro[6,8-dihydro-5H-pyrazolo[4,3-c]azepine-7,4′-tetrahydropyran]-1-yl)propyl 3-(morpholine-4-carbonyl)benzoate] gave an IC50 of under 100 nM. In the case of `CCc1nn(CCCOC(=O)c2ccc(C)c(Cl)c2)c2c1C(=O)NCC1(CCOCC1)C2` [Example 72, 3-(3-ethyl-4-oxo-spiro[6,8-dihydro-5H-pyrazolo[4,3-c]azepine-7,4′-tetrahydropyran]-1-yl)propyl 3-chloro-4-methyl-benzoate], the IC50 is reported as under 100 nM. `CCc1nn(CCCOC(=O)c2cccc(S(=O)(=O)CC)c2)c2c1C(=O)NCC1(CCOCC1)C2` [Example 114, 3-(3-ethyl-4-oxo-spiro[6,8-dihydro-5H-pyrazolo[4,3-c]azepine-7,4′-tetrahydropyran]-1-yl)propyl 3-ethylsulfonylbenzoate] gave an IC50 of under 100 nM. Work on `CCc1nn(C[C@@H](C)COC(=O)c2ccc(C(F)(F)F)c(OC)c2)c2c1C(=O)NCC1(CCOCC1)C2` [Example 233, [(2R)-3-(3-ethyl-4-oxo-spiro[6,8-dihydro-5H-pyrazolo[4,3-c]azepine-7,4′-tetrahydropyran]-1-yl)-2-methyl-propyl] 3-methoxy-4-(trifluoromethyl)benzoate] yielded an IC50 of under 100 nM. With `CCc1nn(CCCOC(=O)c2cc(Cl)cc(C(F)(F)F)c2)c2c1C(=O)NCC1(CCOCC1)C2` [Example 127, 3-(3-ethyl-4-oxo-spiro[6,8-dihydro-5H-pyrazolo[4,3-c]azepine-7,4′-tetrahydropyran]-1-yl)propyl 3-chloro-5-(trifluoromethyl)benzoate] the IC50 was under 100 nM. With `CCc1nn(C[C@@H](C)COC(=O)c2ccc(C)cc2)c2c1C(=O)NCC1(CCOCC1)C2` [Example 164, [(2R)-3-(3-ethyl-4-oxo-spiro[6,8-dihydro-5H-pyrazolo[4,3-c]azepine-7,4′-tetrahydropyran]-1-yl)-2-methyl-propyl] 4-methylbenzoate] the IC50 was under 100 nM. For `CCc1nn(CCCOC(=O)c2ccccc2F)c2c1C(=O)NCC1(CCOCC1)C2` [Example 19, 3-(3-ethyl-4-oxo-spiro[6,8-dihydro-5H-pyrazolo[4,3-c]azepine-7,4′-tetrahydropyran]-1-yl)propyl 2-fluorobenzoate], the IC50 was under 100 nM. With `CCc1nn(CCCOC(=O)c2ccc(F)c(F)c2)c2c1C(=O)NCC1(CCOCC1)C2` [Example 44, 3-(3-ethyl-4-oxo-spiro[6,8-dihydro-5H-pyrazolo[4,3-c]azepine-7,4′-tetrahydropyran]-1-yl)propyl 3,4-difluorobenzoate] the IC50 was under 100 nM. For `CCc1nn(CCCOC(=O)c2ccccc2OC)c2c1C(=O)NCC1(CCOCC1)C2` [Example 30, 3-(3-ethyl-4-oxo-spiro[6,8-dihydro-5H-pyrazolo[4,3-c]azepine-7,4′-tetrahydropyran]-1-yl)propyl 2-methoxybenzoate], the IC50 was under 100 nM. In the case of `CCc1nn(C[C@@H](C)COC(=O)c2cc(Cl)cc(C(F)(F)F)c2)c2c1C(=O)NCC1(CCOCC1)C2` [Example 240, [(2R)-3-(3-ethyl-4-oxo-spiro[6,8-dihydro-5H-pyrazolo[4,3-c]azepine-7,4′-tetrahydropyran]-1-yl)-2-methyl-propyl] 3-chloro-5-(trifluoromethyl)benzoate], the IC50 is reported as under 100 nM.

Same assay, conditions: read-out: PDE4 IC50 range
`CCc1nn(CC(C)(C)COC(=O)c2cccc(C(F)(F)F)c2)c2c1C(=O)NCC1(CCOCC1)C2` [Example 302, [3-(3-ethyl-4-oxo-spiro[6,8-dihydro-5H-pyrazolo[4,3-c]azepine-7,4′-tetrahydropyran]-1-yl)-2,2-dimethyl-propyl] 3-(trifluoromethyl)benzoate] showed an IC50 of under 100 nM. Work on `CCc1nn(CC(C)(C)COC(=O)c2cccc(C(C)=O)c2)c2c1C(=O)NCC1(CCOCC1)C2` [Example 296, [3-(3-ethyl-4-oxo-spiro[6,8-dihydro-5H-pyrazolo[4,3-c]azepine-7,4′-tetrahydropyran]-1-yl)-2,2-dimethyl-propyl] 3-acetylbenzoate] yielded an IC50 of under 100 nM. `CCc1nn(C[C@@H](C)COC(=O)c2cccc(C(=O)N3CCCCC3)c2)c2c1C(=O)NCC1(CCOCC1)C2` [Example 269, [(2R)-3-(3-ethyl-4-oxo-spiro[6,8-dihydro-5H-pyrazolo[4,3-c]azepine-7,4′-tetrahydropyran]-1-yl)-2-methyl-propyl] 3-(piperidine-1-carbonyl)benzoate] showed an IC50 of under 100 nM. Work on `CCc1nn(CC(C)(C)COC(=O)c2cccc(C(=O)NC(C)C)c2)c2c1C(=O)NCC1(CCOCC1)C2` [Example 343, [3-(3-ethyl-4-oxo-spiro[6,8-dihydro-5H-pyrazolo[4,3-c]azepine-7,4′-tetrahydropyran]-1-yl)-2,2-dimethyl-propyl] 3-(isopropylcarbamoyl)-benzoate] yielded an IC50 of under 100 nM.
